Where two headings read alike, the source gives them in different places. One block for each compound: values may come before it.
How the values were obtained:
5-lipoxygenase = target: T1, 5-lipoxygenase (Rattus norvegicus, UniProt P12527); assay: ARBL whole cell 5-lipoxygenase assay (inhibition of LTB4 formation in RBL-1 cells); format: cell-based; settings: for IC50: A23187 stimulated, read-out: ARBL: IC50 (50% inhibition of LTB4 formation)
T1 construct: host or cells: RBL-1 (rat basophilic leukemia)
T1 sequence (P12527 1-673): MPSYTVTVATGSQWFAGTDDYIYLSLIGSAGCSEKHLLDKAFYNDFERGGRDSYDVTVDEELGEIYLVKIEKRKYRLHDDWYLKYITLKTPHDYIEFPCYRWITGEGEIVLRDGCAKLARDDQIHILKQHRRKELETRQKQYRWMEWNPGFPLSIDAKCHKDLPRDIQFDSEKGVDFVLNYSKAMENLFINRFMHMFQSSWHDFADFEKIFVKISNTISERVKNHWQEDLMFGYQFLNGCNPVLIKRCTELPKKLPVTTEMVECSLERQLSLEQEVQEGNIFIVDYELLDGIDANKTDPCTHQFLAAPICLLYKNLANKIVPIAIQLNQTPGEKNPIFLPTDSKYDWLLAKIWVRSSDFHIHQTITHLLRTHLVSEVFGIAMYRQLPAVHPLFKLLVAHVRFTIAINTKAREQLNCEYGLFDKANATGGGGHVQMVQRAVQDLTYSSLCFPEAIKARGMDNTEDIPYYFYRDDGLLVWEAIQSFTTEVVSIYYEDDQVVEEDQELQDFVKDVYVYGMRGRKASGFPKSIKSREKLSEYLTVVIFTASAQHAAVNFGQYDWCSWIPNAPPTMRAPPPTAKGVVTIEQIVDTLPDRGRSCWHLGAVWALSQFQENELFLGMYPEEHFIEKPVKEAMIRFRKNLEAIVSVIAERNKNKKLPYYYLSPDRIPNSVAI
Procedure: (§1) The rat basophilic leukemia cell line (RBL-1) was obtained from the American Type Culture Collection (Rockville, Md.).
(§2) Radioimmunoassay (RIA) kits of LTB4 and PGF2α were obtained from Amersham (Arlington Heights, Ill.) and Seragen (Boston, Mass.), respectively.
(§3) All tissue culture media were obtained from GIBCO (Grand Island, N.Y.).
(§4) RBL-1 cells are grown in suspension culture in Eagles minimum essential medium supplemental with 12% fetal bovine serum at 37° C. in an incubator supplied with air--5% carbon dioxide. Cells are harvested by centrifugation. They are washed with cold phosphate-buffered saline, pH 7.4 (PBS; NaCl, 7.1 g; Na2 HPO4, 1.15 g; KH2 PO4, 0.2 g; and KCl, 0.2 g/L). Cells are incubated with and without test agent (in DMSO) (1% DMSO is without effect on arachidonic acid metabolism) for 10 minutes at room temperature. Calcium ionophore A23187 (5 μM) is added and cells are incubated for 7 minutes at 37° C. The reaction is stopped by chilling the tubes on ice for 10 minutes. Cells are finally suspended in PBS containing 1.0 mM calcium at a density of 2×10^6 cells/mL. Cells are separated by centrifugation and the supernatant is stored at -20° C. Aliquots (100 μL) are analyzed for LTB4 and PGF2α using radioimmunoassay kits as provided by the supplier.
(§5) Table 1 contains biochemical data for compounds of formula I obtained from this whole cell assay as IC50 s which are calculated as the concentration of a test compound in micromoles (μM) causing 50% inhibition of LTB4 or PGF2α formation.

cyclooxygenase = target: T2, cyclooxygenase (Rattus norvegicus, UniProt Q63921); assay: ARBC whole cell cyclooxygenase assay (inhibition of PGF2α formation in RBL-1 cells); format: cell-based; settings: for IC50: A23187 stimulated, Table 2 (formula II), read-out: ARBC: IC50 (50% inhibition of PGF2α formation)
T2 construct: host or cells: RBL-1 (rat basophilic leukemia)
T2 sequence (Q63921 27-602): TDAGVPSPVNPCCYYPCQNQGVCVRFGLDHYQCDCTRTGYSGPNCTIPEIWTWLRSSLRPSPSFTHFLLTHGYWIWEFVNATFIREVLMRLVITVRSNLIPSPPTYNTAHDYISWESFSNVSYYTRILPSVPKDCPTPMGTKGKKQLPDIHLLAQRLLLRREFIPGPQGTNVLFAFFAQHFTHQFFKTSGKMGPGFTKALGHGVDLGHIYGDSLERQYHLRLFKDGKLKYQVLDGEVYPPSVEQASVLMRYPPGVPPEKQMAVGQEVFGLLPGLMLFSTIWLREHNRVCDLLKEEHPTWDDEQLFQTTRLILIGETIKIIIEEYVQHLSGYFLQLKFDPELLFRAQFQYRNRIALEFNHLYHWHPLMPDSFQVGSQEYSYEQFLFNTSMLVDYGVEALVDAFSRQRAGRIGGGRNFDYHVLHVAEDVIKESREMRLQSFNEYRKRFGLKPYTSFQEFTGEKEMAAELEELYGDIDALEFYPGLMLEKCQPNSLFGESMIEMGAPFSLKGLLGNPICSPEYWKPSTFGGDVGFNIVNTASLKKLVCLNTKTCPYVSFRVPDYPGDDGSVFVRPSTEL
Procedure: as §1, §2, §3, §4, §5

[1] = read-out: ARBL: % inhibition of LTB4 at 10 μM, 10 μM, A23187 stimulated, Table 2 (formula II)
[2] = read-out: ARBC: % inhibition of PGF2α at 10 μM, 10 μM, A23187 stimulated, Table 2 (formula II)
[3] = read-out: ARBL: % inhibition of LTB4 at 10 μM, 10 μM, A23187 stimulated, Table 1 (formula I)
[4] = read-out: ARBC: % inhibition of PGF2α at 10 μM, 10 μM, A23187 stimulated, Table 1 (formula I)

inhibition at 10 µM (5-lipoxygenase; [1]): < 40% | inhibition at 10 µM (cyclooxygenase; [2]): < 40%
SMILES: O=C1NC(=S)S/C1=C\c1ccccc1Nc1cccc(C(F)(F)F)c1 [Example 2, (Z)-2-Thioxo-5-[[2-[[3-(trifluoromethyl)phenyl]amino]phenyl]methylene]-4-thiazolidinone]

inhibition at 10 µM (5-lipoxygenase; [3]): < 40% | inhibition at 10 µM (cyclooxygenase; [4]): < 40%
SMILES: CN1C(=O)/C(=C/c2ccccc2Nc2cccc(C(F)(F)F)c2)SC1=S [Example 4]

inhibition at 10 µM (5-lipoxygenase; [1]): < 40% | inhibition at 10 µM (cyclooxygenase; [2]): < 40%
SMILES: O=C1NC(=O)/C(=C/c2ccccc2Nc2cccc(C(F)(F)F)c2)S1 [Example 9, (Z)-5-[[2-[[3-(Trifluoromethyl)phenyl]amino]phenyl]methylene]-2,4-thiazolidinedione]

inhibition at 10 µM (5-lipoxygenase; [1]): 55% | inhibition at 10 µM (cyclooxygenase; [2]): < 40%
SMILES: Cc1ccc(Cl)c(Nc2ccccc2/C=C2\SC(=O)NC2=O)c1Cl [Example 7, (Z)-5-[[2-[(2,6-Dichloro-3-methylphenyl)amino]phenyl]methylene]-2,4-thiazolidinedinone]

inhibition at 10 µM (5-lipoxygenase; [1]): < 40% | inhibition at 10 µM (cyclooxygenase; [2]): < 40%
SMILES: Cc1ccc(Cl)c(Nc2ccccc2/C=C2\SC(=N)NC2=O)c1Cl [Example 5, (Z)-5-[[2-[(2,6-Dichloro-3-methylphenyl)amino]phenyl]methylene]-2-imino-4-thiazolidinone]

Further lines, the compound ahead of its results:

SMILES: CC(C)(C)c1cc(Nc2ccccc2/C=C2\SC(=S)NC2=O)cc(C(C)(C)C)c1O [Example 12]
IC50 (5-lipoxygenase; Table 2 (formula II)): 1470 nM | IC50 (cyclooxygenase): 2.25 µM

SMILES: Cc1ccc(Cl)c(Nc2ccccc2/C=C2\SC(NC#N)=NC2=O)c1Cl [Example 8]
IC50 (5-lipoxygenase; Table 2 (formula II)): 1480 nM | IC50 (cyclooxygenase): 10.2 µM

SMILES: Cc1ccc(Cl)c(Nc2ccccc2/C=C2\SC(=S)N(C)C2=O)c1Cl [Example 3, (Z)-5-[[2-[(2,6-Dichloro-3-methylphenyl)amino]phenyl]methylene]-3-methyl-2-thioxo-4-thiazolidinone]
inhibition at 10 µM (5-lipoxygenase; [3]): 100% | inhibition at 10 µM (cyclooxygenase; [4]): < 40%

SMILES: Cc1ccc(Cl)c(Nc2ccccc2/C=C2\SC(=S)NC2=O)c1Cl [Example 1, (Z)-5-[[2-[(2,6-Dichloro-3-methylphenyl)amino]phenyl]methylene]-2-thioxo-4-thiazolidinone]
IC50 (5-lipoxygenase; Table 2 (formula II)): 820 nM | IC50 (cyclooxygenase): 5.96 µM

SMILES: CSC1=NC(=O)/C(=C/c2ccccc2Nc2c(Cl)ccc(C)c2Cl)S1 [Example 6, (Z)-5-[[2-[(2,6-Dichloro-3-methylphenyl)amino]phenyl]methylene]-2-(methylthio)-4(5H)-thiazolone]
inhibition at 10 µM (5-lipoxygenase; [1]): 100% | inhibition at 10 µM (cyclooxygenase; [2]): < 40%

SMILES: Cc1ccc(Cl)c(Nc2ccccc2/C=C2\SC(=S)N(CC(=O)O)C2=O)c1Cl [Example 10, (Z)-5-[[2-[[2-Dichloro-3-methylphenyl)-amino]phenyl]methylene]-4-oxo-2-thioxo-3-thiazolidine acetic acid]
IC50 (5-lipoxygenase; Table 1 (formula I)): 2180 nM | inhibition at 10 µM (cyclooxygenase; [4]): < 40%

Reference: US5143929A, “2-substituted thiazolidinone, oxazolidinone, and imidazolidinone derivatives of fenamates as antiinflammatory agents” (Warner-Lambert Company, priority 1991, dated 1992)
